Several values for one entry are separate records, joined by “and”; a condition that tells them apart may be missing. Identical values can stand only once. Entries after “also recorded” stand apart in the source; their conditions may differ.
B1: MAP30: Momordica Anti-HIV Protein 30 kDa, native full-length, SEQ ID NO:1, from bitter melon (protein, listed as Momordica charantia)
chain: DVNFDLSTATAKTYTKFIEDFRATLPFSHKVYDIPLLYSTISDSRRFILLDLTSYAYETISVAIDVTNVYVVAYRTRDVSYFFKESPPEAYNILFKGTRKITLPYTGNYENLQTAAHKIRENIDLGLPALSSAITTLFYYNAQSAPSALLVLIQTTAEAARFKYIERHVAKYVATNFKPNLAIISLENQWSALSKQIFLAQNQGGKFRNPVDLIKPTGERFQVTNVDSDVVKGNIKLLLNSRASTADENFITTMTLLGESVVN

What was measured:
HIV-1(IIIB) = experiment: Anti-HIV assay: p24 expression in HIV-infected MT-4 T lymphocytes; assay type: cell-based; conditions: for EC50 / EC50 anti-HIV, p24 / EC100 anti-HIV, p24 (complete inhibition of HIV-1) / EC100 anti-HIV, p24 (molar): HIV-1 infected MT4 lymphocytes; for fold more potent than N-9 in terms of molar concentration at EC50 / fold more potent than N-9 in terms of weight per volume: anti-HIV p24, MT4; for concentration of complete inhibition of p24 expression (FIG. 9): p24 ELISA of HIV-infected MT4 culture supernatant
Description: Anti-HIV activity was assayed by inhibition on viral core protein, p24 expression in HIV-infected MT-4 T lymphocytes by RIA as described previously (World Health Organization (1992); Bourinbaiar et al (1995)). Briefly, the cells were plated in duplicated in 96-well microtiter plates at 1×10^5 cells/ml in the presence of serial 10-fold dilution of MAP30, or GAP31 or NP-9 at concentrations from […]. The cells were then infected with HIV-1(IIIB) at 100 infectious units per cell. The culture supernatants were collected on day 3 and were used for p24 assay using ELISA kit from Coulter (Hialeah, Fla.). Duplicates of original viral inoculum in the same volume of the medium without the target cells and incubated for 3 days were used as blanks. The blank values were subtracted from wells in which virus was propagated in host MT4 cells with or without drugs.

[1] = tested on: endoproteinase Lys-C and Glu-C (V8); experiment: Resistance to limited proteolysis with Lys-C and V8 (SDS-PAGE); conditions: Lys-C or V8, up to 24 hr
Description: MAP30 and GAP31 were subjected to proteolysis with sequencing grade endoproteinase Lys-C and Glu-C (Promega, Madison, Wis.). Lys-C cleaves at the carboxylic side of lysine (Elliott et al., 1986). Glu-C, also known as V8 protease, cleaves specifically at the carboxylic side of glutamic acid in the presence of ammonium ion (Drapeau et al., 1972). In the absence of ammonium ion, Glu-C acts at both aspartic and glutamic acids. The reaction buffers for Lys-C and V8 were 25 mM Tris-HCl, pH 7.8, 1 mM EDTA and 50 mM ammonium bicarbonate, pH 7.8 respectively.
FIGS. 1A-1D show time course SDS-PAGE patterns of Lys-C and V8 digestions of MAP30 and GAP31. Three major fragments were produced in each case. These fragments are designated MLF25, MLF21, MLF0.8 (MAP30 Lys-C Fragments of 25, 21, and 0.8 kDa, FIG. 1A), MVF25, MVF21, MVF0.8 (MAP30 V8 Fragments of 25, 21, and 0.8 kDa, FIG. 1B), GLF26, GLF22, GLF0.6 (GAP31 Lys-C Fragments of 26, 22 and 0.6 kDa, FIG. 1C), and GVF26, GVF22, GVF0.6 (GAP31 V8 Fragments of 26, 22 and 0.6 kDa, FIG. 1D). The smaller peptides are C-terminal fragments produced during proteolysis and they are sensitive to further digestion to short peptides.

human spermatozoa [2] = experiment: Sperm motility by counting; assay type: cell-based; conditions: for effect on sperm motility at the antiviral EC100 concentrations: 0.01 to 0.1 μg/ml; for spermicidal activity / motility inhibition over the entire concentration ranges tested: 0.1 to 100 μg/ml
Description: Ten semen samples were randomly obtained form ten donors at the Andrology laboratory of the Department of Obstetrics and Gynecology at NYU Medical Center. All specimens were normal semen samples according to WHO guidelines. Each sample consisted of greater than or equal to 20 million motile sperm per milliliter. Sperm count and motility were determined by placing the sperm on a hackler chamber and assessing the samples under a 40× power microscopic field.
Each semen sample was washed two consecutive times in Ham's F-10 media. The washed sperm was spun to a pellet and then re-suspended in media to a concentration of 40 million spermatocytes per milliliter with at least 50% motility. Five microliters of sperm were then suspended in 100 microliters each of PBS, serial 10-fold dilutions of MAP30, or GAP31 or N-9 from 100 to 0.1 microg/ml. N-9 was used as a positive control. Motility and forward progression were assessed at each log concentration of the three compounds. The exposure time ranged form five minute to two hours.

HSV-2 = experiment: Anti-HSV assay by ELISA in WI-38 cells; assay type: cell-based
Description: Anti-HSV activity was assayed with HSV-2 by ELISA (Meridian Diagnostics, Inc., Cincinnati, Ohio) as reported previously (Bourinbaiar et al (1996)). Human embryonic lung fibroblast cell line WI-38, (CCL-75, from ATCC, Rockville, Md.) was used as target cells. HSV-2 (VR-734, strain G) derived from a human with the genital infection was obtained from ATCC, Rockville, Md.

human spermatozoa [3] = experiment: Sperm vitality by eosin Y/nigrosine staining; assay type: cell-based; conditions: vital stain
Description: The vitality staining was carried out by adding two drops of eosin Y to one drop of sperm sample and mixing for ten seconds. Two drops of nigrosine were then added to this mixture, and the solutions as mixed for 30 seconds. Slides were made from one drop of each solution mixed with MAP30, or GAP31, or N-9.

| Molecule | EC50 (HIV-1(IIIB)) [nM] | EC50 anti-HIV, p24 (HIV-1(IIIB)) [µg/mL] | EC100 anti-HIV, p24 (complete inhibition of HIV-1) (HIV-1(IIIB)) | EC100 anti-HIV, p24 (molar) (HIV-1(IIIB)) [nM] | fold more potent than N-9 in terms of molar concentration at EC50 (HIV-1(IIIB)) | fold more potent than N-9 in terms of weight per volume (HIV-1(IIIB)) | concentration of complete inhibition of p24 expression (FIG. 9) (HIV-1(IIIB)) [microgram/ml] | resistance to proteolysis [1] | inhibition of sperm motility at 100 μg/ml (human spermatozoa [2]) | effect on sperm motility at the antiviral EC100 concentrations (human spermatozoa [2]) | spermicidal activity / motility inhibition over the entire concentration ranges tested (human spermatozoa [2]) | EC100 for HSV-2 (complete inhibition) (HSV-2) [µg/mL] | sperm vitality after treatment (human spermatozoa [3]) | concentration of complete inhibition of sperm motility (FIG. 7) (human spermatozoa [2]) [micrograms/ml] | inhibition in motility at 10 μg/ml (human spermatozoa [2]; 10 μg/ml, relative to PBS as 100% motility, mean ± SEM) [%] | EC50 spermicidal activity (human spermatozoa [2]; 50% inhibition of sperm motility) [µg/mL] | EC100 spermicidal activity (human spermatozoa [2]; 100% inhibition of sperm motility) [µg/mL] | inhibition on sperm motility at the antiviral EC100 concentrations (human spermatozoa [2]; N-9 at 10 μg/ml and 50 μg/ml) [%] |
| --- | --- | --- | --- | --- | --- | --- | --- | --- | --- | --- | --- | --- | --- | --- | --- | --- | --- | --- |
| GAP31: Gelonium Anti-HIV Protein 31 kDa, native full-length, SEQ ID NO:2, from Gelonium multiflorum | 0.3 | 0.001 | 0.1 µg/mL | 3.3 | about 540 fold | about 100 fold | 0.1 | no proteolysis was detected up to 24 hr of treatment even at as much as 5% (W/W) of enzyme | only marginal effect | no significant effect on sperm motility | little spermicidal activity; also recorded: little inhibition | 0.1 | remained vital and impermeable to the pink dye; also recorded: not toxic to the spermatozoa | – | – | – | – | – |
| Nonoxynol-9 [Fragment N-9, reference compound] | 162 | 0.1 | 10 µg/mL | 16200 | – | – | 10 | – | totally inhibited | – | – | 50 | potent spermicidal effect; also recorded: all sperm wimples were dead | 100 | 43±5 | 20 | 100 | 50 to 80 |
| B1 | 0.3 | 0.001 | 0.1 µg/mL and 0.08 µg/mL | 3.3 | about 540 fold | about 100 fold | 0.1 | no proteolysis was detected up to 24 hr of treatment even at as much as 5% (W/W) of enzyme | only marginal effect | no significant effect on sperm motility | little spermicidal activity; also recorded: little inhibition | 0.01 | remained vital and impermeable to the pink dye; also recorded: Identical results | – | – | – | – | – |

Reference: US6652861B1, “Anti-HIV and anti-tumor peptides and truncated polypeptides of MAP30” (priority 1999, dated 2003)
